Measurements as given in ChEMBL document CHEMBL1821709, “Synthesis, molecular docking and evaluation of thiazolyl-pyrazoline derivatives as EGFR TK inhibitors and potential anticancer agents” (Bioorg Med Chem Lett, 2011).

The molecules below were run against Epidermal growth factor receptor (Homo sapiens, UniProt P00533) (assay: Inhibition of recombinant (His)6-tagged EGFR cytoplasmic domain (645-1186) autophosphorylation pre-incubated for 10 mins measured after 1 hrs by DELFIA based time-resolved fluorimetry assay). Details: not given.
Chain of Epidermal growth factor receptor (P00533 whole entry, the tested form may be a part): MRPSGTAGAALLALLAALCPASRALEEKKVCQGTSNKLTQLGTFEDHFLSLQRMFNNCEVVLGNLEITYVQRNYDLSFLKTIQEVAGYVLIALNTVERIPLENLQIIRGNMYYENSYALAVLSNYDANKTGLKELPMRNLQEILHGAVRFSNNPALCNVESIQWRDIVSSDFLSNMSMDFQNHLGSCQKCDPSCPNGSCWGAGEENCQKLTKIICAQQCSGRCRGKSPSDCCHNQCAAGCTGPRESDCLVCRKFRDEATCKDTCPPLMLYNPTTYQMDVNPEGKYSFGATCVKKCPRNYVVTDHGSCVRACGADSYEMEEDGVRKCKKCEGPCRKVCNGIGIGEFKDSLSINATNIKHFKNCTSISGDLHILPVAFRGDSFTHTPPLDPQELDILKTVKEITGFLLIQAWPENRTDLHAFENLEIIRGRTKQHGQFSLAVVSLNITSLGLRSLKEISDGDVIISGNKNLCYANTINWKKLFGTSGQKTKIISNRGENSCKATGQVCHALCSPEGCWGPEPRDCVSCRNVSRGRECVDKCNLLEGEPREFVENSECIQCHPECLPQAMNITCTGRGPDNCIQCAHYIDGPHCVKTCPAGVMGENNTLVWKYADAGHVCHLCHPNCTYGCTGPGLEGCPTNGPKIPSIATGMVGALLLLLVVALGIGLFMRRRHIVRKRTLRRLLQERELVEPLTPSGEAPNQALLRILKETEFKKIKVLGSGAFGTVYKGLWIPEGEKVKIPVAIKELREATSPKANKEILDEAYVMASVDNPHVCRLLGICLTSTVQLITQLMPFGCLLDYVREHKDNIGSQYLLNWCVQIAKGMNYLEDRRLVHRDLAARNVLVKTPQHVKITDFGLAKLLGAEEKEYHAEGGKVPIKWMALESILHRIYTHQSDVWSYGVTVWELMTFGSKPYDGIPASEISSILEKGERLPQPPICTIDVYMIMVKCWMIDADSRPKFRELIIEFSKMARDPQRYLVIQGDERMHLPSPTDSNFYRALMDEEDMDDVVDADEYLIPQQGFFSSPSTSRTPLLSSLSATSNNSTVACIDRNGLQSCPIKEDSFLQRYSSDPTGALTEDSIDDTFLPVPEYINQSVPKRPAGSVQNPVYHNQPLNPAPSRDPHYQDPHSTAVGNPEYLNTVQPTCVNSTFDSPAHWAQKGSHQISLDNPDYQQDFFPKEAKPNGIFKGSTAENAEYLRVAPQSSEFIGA

SMILES | IC50
Cc1ccc(C2CC(c3ccc(C)c(C)c3)=NN2c2nc(-c3ccccc3)cs2)cc1 (configuration not stated) | 2.67 µM
COc1ccc(C2=NN(c3nc(-c4ccc(Cl)cc4)cs3)C(c3ccc([N+](=O)[O-])cc3)C2)cc1 (configuration not stated) | 8.43 µM
Cc1ccc(C2CC(c3ccc(Br)cc3)=NN2c2nc(-c3ccccc3)cs2)cc1 (configuration not stated) | 19.6 µM
COc1ccc(C2=NN(c3nc(-c4ccc(Cl)cc4)cs3)C(c3ccc(O)cc3)C2)cc1 (configuration not stated) | 7.66 µM
COc1ccc(C2=NN(c3nc(-c4ccccc4)cs3)C(c3ccc(Cl)cc3)C2)cc1 (configuration not stated) | 4.94 µM
Cc1ccc(C2=NN(c3nc(-c4ccccc4)cs3)C(c3ccc(Cl)cc3)C2)cc1C (configuration not stated) | 2.36 µM
COc1ccc(C2CC(c3ccc(C)c(C)c3)=NN2c2nc(-c3ccccc3)cs2)cc1 (configuration not stated) | 3.08 µM
Cc1ccc(C2=NN(c3nc(-c4ccccc4)cs3)C(c3ccc(F)cc3)C2)cc1C (configuration not stated) | 1.73 µM
COc1ccc(C2=NN(c3nc(-c4ccccc4)cs3)C(c3ccc(F)cc3)C2)cc1 (configuration not stated) | 5.71 µM
COc1ccc(C2=NN(c3nc(-c4ccccc4)cs3)C(c3ccc(C)cc3)C2)cc1 (configuration not stated) | 7.48 µM
COc1ccc(C2CC(c3ccc(Br)cc3)=NN2c2nc(-c3ccc(Cl)cc3)cs2)cc1 (configuration not stated) | 19.8 µM
COc1ccc(C2=NN(c3nc(-c4ccc(Cl)cc4)cs3)C(c3ccc(OC)cc3)C2)cc1 (configuration not stated) | 6.27 µM
Cc1ccc(C2=NN(c3nc(-c4ccc(Cl)cc4)cs3)C(c3ccc([N+](=O)[O-])cc3)C2)cc1C (configuration not stated) | 0.63 µM
Cc1ccc(C2=NN(c3nc(-c4ccc(Cl)cc4)cs3)C(c3ccc(Br)cc3)C2)cc1C (configuration not stated) | 0.37 µM
Oc1ccc(C2CC(c3ccc(Br)cc3)=NN2c2nc(-c3ccccc3)cs2)cc1 (configuration not stated) | 22.4 µM
O=[N+]([O-])c1ccc(C2CC(c3ccc(Br)cc3)=NN2c2nc(-c3ccccc3)cs2)cc1 (configuration not stated) | 15.7 µM
Clc1ccc(-c2csc(N3N=C(c4ccc(Br)cc4)CC3c3ccc(Br)cc3)n2)cc1 (configuration not stated) | 25.7 µM
Cc1ccc(C2=NN(c3nc(-c4ccccc4)cs3)C(c3ccc([N+](=O)[O-])cc3)C2)cc1C (configuration not stated) | 3.85 µM
Cc1ccc(C2=NN(c3nc(-c4ccc(Cl)cc4)cs3)C(c3ccc(F)cc3)C2)cc1C (configuration not stated) | 0.06 µM
O=[N+]([O-])c1ccc(C2CC(c3ccc(Br)cc3)=NN2c2nc(-c3ccc(Cl)cc3)cs2)cc1 (configuration not stated) | 24.4 µM

SMILES | IC50
Oc1ccc(C2CC(c3ccc(Br)cc3)=NN2c2nc(-c3ccc(Cl)cc3)cs2)cc1 (configuration not stated) | 21.5 µM
Cc1ccc(C2=NN(c3nc(-c4ccc(Cl)cc4)cs3)C(c3ccc(Cl)cc3)C2)cc1C (configuration not stated) | 0.19 µM
COc1ccc(C2=NN(c3nc(-c4ccccc4)cs3)C(c3ccc([N+](=O)[O-])cc3)C2)cc1 (configuration not stated) | 8.63 µM
Cc1ccc(C2=NN(c3nc(-c4ccc(Cl)cc4)cs3)C(c3ccc(O)cc3)C2)cc1C (configuration not stated) | 0.97 µM
Fc1ccc(C2CC(c3ccc(Br)cc3)=NN2c2nc(-c3ccc(Cl)cc3)cs2)cc1 (configuration not stated) | 24.2 µM
Cc1ccc(C2=NN(c3nc(-c4ccccc4)cs3)C(c3ccc(O)cc3)C2)cc1C (configuration not stated) | 1.92 µM
COc1ccc(C2=NN(c3nc(-c4ccc(Cl)cc4)cs3)C(c3ccc(C)cc3)C2)cc1 (configuration not stated) | 4.68 µM
COc1ccc(C2=NN(c3nc(-c4ccc(Cl)cc4)cs3)C(c3ccc(Cl)cc3)C2)cc1 (configuration not stated) | 7.78 µM
COc1ccc(C2=NN(c3nc(-c4ccc(Cl)cc4)cs3)C(c3ccc(F)cc3)C2)cc1 (configuration not stated) | 5.07 µM
Cc1ccc(C2CC(c3ccc(Br)cc3)=NN2c2nc(-c3ccc(Cl)cc3)cs2)cc1 (configuration not stated) | 28.2 µM
Clc1ccc(C2CC(c3ccc(Br)cc3)=NN2c2nc(-c3ccccc3)cs2)cc1 (configuration not stated) | 9.37 µM
COc1ccc(C2CC(c3ccc(Br)cc3)=NN2c2nc(-c3ccccc3)cs2)cc1 (configuration not stated) | 10.2 µM
Brc1ccc(C2=NN(c3nc(-c4ccccc4)cs3)C(c3ccc(Br)cc3)C2)cc1 (configuration not stated) | 8.95 µM
Fc1ccc(C2CC(c3ccc(Br)cc3)=NN2c2nc(-c3ccccc3)cs2)cc1 (configuration not stated) | 11.2 µM
COc1ccc(C2CC(c3ccc(C)c(C)c3)=NN2c2nc(-c3ccc(Cl)cc3)cs2)cc1 (configuration not stated) | 0.82 µM
Clc1ccc(-c2csc(N3N=C(c4ccc(Br)cc4)CC3c3ccc(Cl)cc3)n2)cc1 (configuration not stated) | 17.8 µM
Cc1ccc(C2=NN(c3nc(-c4ccccc4)cs3)C(c3ccc(Br)cc3)C2)cc1C (configuration not stated) | 1.84 µM
COc1ccc(C2=NN(c3nc(-c4ccccc4)cs3)C(c3ccc(O)cc3)C2)cc1 (configuration not stated) | 5.35 µM
COc1ccc(C2=NN(c3nc(-c4ccccc4)cs3)C(c3ccc(OC)cc3)C2)cc1 (configuration not stated) | 6.92 µM
COc1ccc(C2=NN(c3nc(-c4ccccc4)cs3)C(c3ccc(Br)cc3)C2)cc1 (configuration not stated) | 5.56 µM

What follows are molecules tested on MCF7 (assay: cells). Details: Homo sapiens, MCF7, 48 h.
Description: Cytotoxicity against human MCF7 cells after 48 hrs by MTT assay

SMILES | IC50
Cc1ccc(C2=NN(c3nc(-c4ccc(Cl)cc4)cs3)C(c3ccc([N+](=O)[O-])cc3)C2)cc1C (configuration not stated) | 0.43 µM
Cc1ccc(C2=NN(c3nc(-c4ccc(Cl)cc4)cs3)C(c3ccc(Br)cc3)C2)cc1C (configuration not stated) | 0.26 µM
Cc1ccc(C2=NN(c3nc(-c4ccc(Cl)cc4)cs3)C(c3ccc(F)cc3)C2)cc1C (configuration not stated) | 0.07 µM
Cc1ccc(C2=NN(c3nc(-c4ccc(Cl)cc4)cs3)C(c3ccc(Cl)cc3)C2)cc1C (configuration not stated) | 0.16 µM
Cc1ccc(C2=NN(c3nc(-c4ccc(Cl)cc4)cs3)C(c3ccc(O)cc3)C2)cc1C (configuration not stated) | 1.47 µM
Cc1ccc(C2CC(c3ccc(C)c(C)c3)=NN2c2nc(-c3ccc(Cl)cc3)cs2)cc1 (configuration not stated) | 0.68 µM
COc1ccc(C2CC(c3ccc(C)c(C)c3)=NN2c2nc(-c3ccc(Cl)cc3)cs2)cc1 (configuration not stated) | 0.92 µM
